The results in this text go back to publication PMC12881674, “Activation of TRPV3 channels in bladder cancer cells stimulates ATP release” (Molecular Pharmacology, 2025).

One test has as its target T1, mouse TRPV2 (Mus musculus, UniProt Q9WTR1).
T1 construct: expressed in transfected cells; host or cells: HEK293
T1 sequence (Q9WTR1 1-756): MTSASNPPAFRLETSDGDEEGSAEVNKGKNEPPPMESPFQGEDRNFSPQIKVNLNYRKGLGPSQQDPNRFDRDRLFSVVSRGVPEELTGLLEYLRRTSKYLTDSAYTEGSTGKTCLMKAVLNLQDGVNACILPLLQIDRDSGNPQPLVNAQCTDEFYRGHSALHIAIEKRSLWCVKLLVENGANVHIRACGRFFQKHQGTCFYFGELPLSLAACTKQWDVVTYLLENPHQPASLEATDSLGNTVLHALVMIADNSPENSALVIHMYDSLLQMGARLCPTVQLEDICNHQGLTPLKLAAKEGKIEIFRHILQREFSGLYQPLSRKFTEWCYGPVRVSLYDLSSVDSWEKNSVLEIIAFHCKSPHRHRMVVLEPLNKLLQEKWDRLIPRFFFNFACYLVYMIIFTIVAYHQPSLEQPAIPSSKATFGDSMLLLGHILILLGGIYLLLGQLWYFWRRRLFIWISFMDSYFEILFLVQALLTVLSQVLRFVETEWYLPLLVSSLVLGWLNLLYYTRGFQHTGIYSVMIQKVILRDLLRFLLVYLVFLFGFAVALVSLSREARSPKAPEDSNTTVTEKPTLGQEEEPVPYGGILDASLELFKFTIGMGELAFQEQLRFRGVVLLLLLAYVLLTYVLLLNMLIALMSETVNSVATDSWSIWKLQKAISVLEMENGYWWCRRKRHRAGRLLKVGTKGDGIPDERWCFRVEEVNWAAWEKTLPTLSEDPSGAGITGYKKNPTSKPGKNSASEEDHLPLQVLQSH
As to the kind of experiment: fluo-4 Ca2+ assay selectivity, HEK cells expressing mouse TRPV2. It counts as cell-based. The conditions noted are these: concentrations up to 50 μM. An excerpt:
(§1) KU-19-19 (DSMZ no. ACC 395), CAL-29 (DSMZ no. ACC 515), 647-V (DSMZ no. ACC 414), RT-4 (DSMZ no. ACC 412), and RT-112 (DSMZ no. ACC 418) bladder cancer cell lines were obtained from the Leibniz Institute DSMZ (German Collection of Microorganisms and Cell Cultures). Human TRPV3 (NM_145068, purchased from OriGene) and mouse TRPV3 (NM_001371006), rat TRPV1, mouse TRPV2, mouse TRPV4, human TRPM2, human TRPM8, and human TRPA1 were stably transfected in HEK293 cells as described before.[27] […]
(§2) All fluorometric Ca^2+ assays were performed in HBS buffer at room temperature. […] For the primary compound screening and the generation of concentration-response analyses, a robotic liquid handling station (Freedom Evo 150; Tecan) with a built-in custom-made fluorescence plate imager was used. […] Fluorescence was excited using a 470-nm light-emitting diode, and emitted light was imaged through a 515-nm–long pass filter with a cooled Zyla 5.5 camera (Andor). Fluorescence was recorded and processed under the control of the μ-Manager 2.0 gamma software (https://micro-manager.org.[28]). After recording baseline fluorescence, compounds were dispensed into the wells via the liquid handling device. […] For further analysis, fluorescence signals were calculated for each well, corrected for background intensities and normalized to the initial signals. […]

In the next test the target is T2, human TRPM2 (Homo sapiens, UniProt O94759).
T2 construct: expressed in transfected cells; host or cells: HEK293
T2 sequence (O94759 whole entry): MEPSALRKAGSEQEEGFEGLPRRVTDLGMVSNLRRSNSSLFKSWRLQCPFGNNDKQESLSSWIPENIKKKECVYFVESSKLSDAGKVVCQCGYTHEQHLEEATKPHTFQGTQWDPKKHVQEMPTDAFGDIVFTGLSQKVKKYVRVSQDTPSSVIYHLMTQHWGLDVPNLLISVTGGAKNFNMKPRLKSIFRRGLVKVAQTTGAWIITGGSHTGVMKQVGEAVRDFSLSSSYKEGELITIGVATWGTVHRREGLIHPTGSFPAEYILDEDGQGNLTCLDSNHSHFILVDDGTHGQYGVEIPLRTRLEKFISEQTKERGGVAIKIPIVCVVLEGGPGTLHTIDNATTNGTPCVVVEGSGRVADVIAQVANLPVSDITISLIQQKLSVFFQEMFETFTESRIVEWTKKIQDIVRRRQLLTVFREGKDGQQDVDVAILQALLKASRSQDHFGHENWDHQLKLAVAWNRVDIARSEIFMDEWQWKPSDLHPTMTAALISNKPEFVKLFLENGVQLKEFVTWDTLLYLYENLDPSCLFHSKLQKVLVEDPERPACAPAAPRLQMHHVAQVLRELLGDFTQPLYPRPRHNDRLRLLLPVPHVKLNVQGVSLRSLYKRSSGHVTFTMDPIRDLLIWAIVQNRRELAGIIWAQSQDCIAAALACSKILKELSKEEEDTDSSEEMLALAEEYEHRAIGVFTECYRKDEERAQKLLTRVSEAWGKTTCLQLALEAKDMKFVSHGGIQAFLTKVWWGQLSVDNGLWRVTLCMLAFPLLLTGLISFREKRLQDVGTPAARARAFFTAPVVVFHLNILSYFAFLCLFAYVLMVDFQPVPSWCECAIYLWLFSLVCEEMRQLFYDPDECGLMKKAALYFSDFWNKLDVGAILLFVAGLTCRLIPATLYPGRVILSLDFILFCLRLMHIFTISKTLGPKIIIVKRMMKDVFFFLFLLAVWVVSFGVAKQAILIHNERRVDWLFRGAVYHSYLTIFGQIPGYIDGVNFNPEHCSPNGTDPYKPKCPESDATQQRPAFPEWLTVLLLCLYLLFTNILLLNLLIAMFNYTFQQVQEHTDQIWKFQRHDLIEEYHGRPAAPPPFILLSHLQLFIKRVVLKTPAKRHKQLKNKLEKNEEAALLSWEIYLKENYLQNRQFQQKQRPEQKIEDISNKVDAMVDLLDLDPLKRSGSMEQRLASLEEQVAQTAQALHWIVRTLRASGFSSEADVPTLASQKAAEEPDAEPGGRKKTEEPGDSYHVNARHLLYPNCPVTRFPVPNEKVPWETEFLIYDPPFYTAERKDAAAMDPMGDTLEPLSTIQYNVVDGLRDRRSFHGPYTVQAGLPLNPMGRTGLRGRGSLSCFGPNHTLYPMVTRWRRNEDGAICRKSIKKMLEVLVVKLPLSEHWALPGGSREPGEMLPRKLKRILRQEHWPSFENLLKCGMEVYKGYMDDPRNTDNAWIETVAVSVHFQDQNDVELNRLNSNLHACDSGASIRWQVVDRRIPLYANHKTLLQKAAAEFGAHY
As to the kind of experiment: fluo-4 Ca2+ assay selectivity, HEK cells expressing human TRPM2. It counts as cell-based. The conditions noted are these: concentrations up to 50 μM.
Excerpt: as §1, §2

For `COC(=O)C12CN(Cc3ccccc3)CC1(C(=O)OC)CN(Cc1ccccc1)C2` (centres unmarked) [AV3-1], on mouse TRPV2, the “effect on TRPV2” value is “no effect”. The “effect on TRPM2” value on human TRPM2 is given as “no effect”.
